Source: paper PMC11555678, “Improved Broad Spectrum Antifungal Drug Synergies with Cryptomycin, a Cdc50-Inspired Antifungal Peptide” (ACS Infectious Diseases, 2024)
Values after ≈ are worked out from the molar mass of the structure shown. Like-named read-outs stand apart in the source and are kept apart here. Square brackets hold non-standard residues; d marks the D form. Peptide text beside a SMILES is read from it. * marks the point of attachment. Myristoyl = CCCCCCCCCCCCCC(=O)*; Orn = NCCC[C@H](N)C(=O)O

Key:
[1] = tested on: C. neoformans H99; format: cell-based, Cryptococcus neoformans; settings: for MIC of antifungal in combination with (FITC)KKOO / MIC of antifungal in combination with KKOO / MIC of antifungal in combination with KKOO-NH2: RPMI1640, 37 °C; for MIC of antifungal in combination with KKOO / MIC of antifungal in combination with KKOO-NH2: 48 h
Description: All microdilution assays with fungi were carried out in accordance with CLSI protocols from M27 for yeasts and M38 for filamentous fungi, respectively, unless otherwise specified.[64],[65] Briefly, 96-well plates were charged with RPMI1640 media, with operating volume in the first column, 200 μL, and half operating volume, 100 μL, in the remaining wells. Drug stock solution in DMSO was aliquoted into the first well in each row. Half of the volume in the dosed well was serially diluted 2-fold until column 11. Column 11 was used as the negative growth control, and column 12 was used as the positive growth control. ON yeast cultures in YPD were washed twice in DD-H2O, resuspended in PBS, and adjusted to 5000 cfu/mL in RPMI. The 96-well plate was inoculated with 100 μL aliquots of cell suspension per well. […]
To assess drug synergy, the initial media charged to the plate contained the peptide at twice the final operating concentration; the remaining processing steps were identical to the MIC experiment. Upon addition of 100 μL of inoculant, the final operating concentration was achieved. Control MIC plates were prepared alongside drug synergy plates to account for the day-to-day variability in any individual MIC. FIC index is computed using eq 1. All MIC assays and drug synergy assays were completed with two technical replicates per 96-well plate and a minimum of two biological replicates per drug combination. If a difference in MIC between the two technical replicates on the plate were observed, only the higher concentration was reported as the MIC to reduce the possibility of type 1 error (false positive) [drawing 1] 1

[2] = tested on: C. neoformans MRL862; settings: cited from earlier work
Description: First, the MICs of the peptides and commonly used antifungal drugs were assessed on their own. A full accounting of MICs of intermediate SAR screen peptides is reported in Supporting Information, Table S1.

[3] = tested on: Cn H99; test: Intracellular ROS detection (H2DCFDA, flow cytometry); format: cell-based, Cryptococcus neoformans; settings: 30 min exposure in YPD
Description: (§1) Protocol was carried out in accordance with previously reported methodologies.[35] Yeast cells were grown ON in liquid YPD, washed once in H2O, and resuspended in fresh YPD. The OD600 was adjusted to 0.2 in YPD. Cells were incubated for 3 h at 30 °C, 225 rpm, and then stained with 10 μM H2DCFDA for 2 h at 30 °C, 225 rpm, in the dark. Stained cells were washed twice with DD-H2O and resuspended in the minimal amount of YPD or calcium-enriched YPD needed to inoculate each technical replicate with cells. Each condition was prepared with four technical replicates. In the dark, the stained cells were titrated with KKOO-NH2 from 0.25 to 1× MIC and incubated for 30 min at 30 °C, 225 rpm, in 1 mL of YPD in 12 mL of vented culture tubes. After treatment, cells were transferred to 1.5 mL Eppendorf and centrifuged for 5 min at 2000 rpm. The cells were washed once with 0.5 mL of PBS and resuspended in 0.2 mL of PBS, and stored on ice for live-cell flow analysis, BD FACS Via (Franklyn Lakes, NJ). 100,000 events were recorded, and singlets were gated from SSC-A × FSC-A plot. Mean fluorescence signal intensity from the probe was plotted as a function of peptide concentration. Cells that remained after FACS were pooled based on their condition and imaged under the fluorescence microscope, Zeiss Axioscope 5.

[4] = tested on: Cn cdc50Δ; test: as above; format: cell-based, Cryptococcus neoformans; settings: 30 min exposure in YPD
Description: as §1

[5] = tested on: C. neoformans with macrophage J774 cells; test: Phagocytosis assay; format: cell-based, Cryptococcus neoformans / murine macrophage; settings: sub-MIC peptide-treated yeast cells coincubated with macrophages for 2 h
Description: The J774A. I macrophage-like cell line (ATCC# TIB-67) was grown in DMEM supplemented with 10% FBS, 5% penstrep, and L-glutamine (1×), and passed 2–3 times per week. The cells were never used after 5 passages. Phagocytosis assay was performed in a 48-well plate using J774 cells (5 × 10^4) in 0.5 mL of fresh DMEM were added to each well and incubated at 37 °C, 5% CO2. To activate the macrophages, 50 units/mL interferon γ (IFN-γ; Invitrogen) and 1 μg/mL lipopolysaccharide (LPS; Sigma) were added to each well. Yeast cells were adjusted to 2.4 × 10^6 cfu/mL in RPMI1640. One mL of cell suspension was aliquoted into a 12 mL vented culture tube. The peptide was added to each tube, and the cells were incubated for 30 min at 30 °C, 225 rpm. The cells were pelleted and resuspended in 100 μL of 20% mouse compliment in PBS. The cells were opsonized at room temperature for 30 min. After opsonization, 10 μL of cell suspension was added to each well. Yeast cells were coincubated with macrophages for 2 h at 37 °C in 5% CO2 in technical triplicates per condition. After coincubation, the supernatant was removed, and the wells were washed 3 times with 200 μL DMEM + penstrep, and then fixed with 200 μL ice cold methanol for 30 min. […] The images were quantified using phagocytosis rate, % phagocytosis, and phagocytic index, eqs 3–5, between 200 and 300 macrophages were counted per technical replicate [drawing 3] […]

| SMILES | MIC of antifungal in combination with (FITC)KKOO ([1]; +0 μg/mL (FITC)KKOO) [µg/mL] | MIC of antifungal in combination with KKOO ([1]; +0 μg/mL KKOO (control)) [µg/mL] | MIC of antifungal in combination with KKOO-NH2 ([1]; +0 μg/mL KKOO-NH2 (control)) [µg/mL] | MIC of antifungal in combination with KKOO-NH2 ([1]; +1 μg/mL KKOO-NH2) [µg/mL] | MIC of antifungal in combination with KKOO ([1]; +1 μg/mL KKOO) [µg/mL] | MIC of antifungal in combination with KKOO-NH2 ([1]; +2 μg/mL KKOO-NH2) [µg/mL] | MIC of antifungal in combination with KKOO ([1]; +2 μg/mL KKOO) [µg/mL] | MIC of antifungal in combination with (FITC)KKOO ([1]; +4 μg/mL (FITC)KKOO) [µg/mL] | MIC of antifungal in combination with KKOO-NH2 ([1]; +4 μg/mL KKOO-NH2) [µg/mL] | MIC of antifungal in combination with KKOO ([1]; +4 μg/mL KKOO) [µg/mL] | MIC of antifungal in combination with (FITC)KKOO ([1]; +8 μg/mL (FITC)KKOO) [µg/mL] | MIC of antifungal in combination with KKOO ([1]; +8 μg/mL KKOO) [µg/mL] | MIC, reported value [2] [µg/mL] | lowest peptide concentration with elevated ROS production [3] [µg/mL] | lowest peptide concentration with elevated ROS production [4] [µg/mL] | phagocytic index or phagocytosis rate vs control [5] | reduction of MIC of antifungal ([1]; in the presence of 1 μg/mL KKOO-NH2, 48 h) [fold] | reduction of MIC of antifungal ([1]; in the presence of 4 μg/mL (FITC)KKOO) [fold] | reduction of MIC of antifungal ([1]; in the presence of 2 μg/mL KKOO-NH2, 48 h) [fold] |
| --- | --- | --- | --- | --- | --- | --- | --- | --- | --- | --- | --- | --- | --- | --- | --- | --- | --- | --- | --- |
| CC[C@H](C)C[C@H](C)CCCCCCCCC(=O)N[C@H]1C[C@@H](O)[C@@H](NCCN)NC(=O)[C@@H]2[C@@H](O)CCN2C(=O)[C@H]([C@H](O)CCN)NC(=O)[C@H]([C@H](O)[C@@H](O)c2ccc(O)cc2)NC(=O)[C@@H]2C[C@@H](O)CN2C(=O)[C@H]([C@@H](C)O)NC1=O [CAS, caspofungin] | 16 | 16 | 16 | 16 | 16 | 16 | 16 | 16 | 4 | 16 | 16 | 8 | – | – | – | – | – | – | – |
| OC(Cn1cncn1)(Cn1cncn1)c1ccc(F)cc1F [FLC, fluconazole] | 2 | 2 | 2 | 2 | 2 | 2 | 2 | 2 | 1 | 2 | 2 | 1 | 128 (≈ 418 µM) | – | – | – | – | – | – |
| CCCCCCCCCCCCCC(=O)N[C@@H](Cc1c[nH]c2ccccc12)C(=O)NCC(=O)NCC(=O)N[C@H](C(=O)N[C@@H](CCCN)C(=O)N[C@@H](CCCN)C(=O)N[C@@H](CC(N)=O)C(=O)N[C@@H](Cc1ccc(O)cc1)C(=O)N[C@@H](C)C(N)=O)[C@@H](C)CC [KKOO-NH2] (Myristoyl-WGGI[Orn][Orn]NYA-NH2) | – | – | – | – | – | – | – | – | – | – | – | – | – | 4 | 1 | No statistically significant differences | – | – | – |
| C[C@@H]1[C@H](O)[C@@H](C)/C=C/C=C/C=C/C=C/C=C/C=C/C=C/[C@H](O[C@@H]2O[C@H](C)[C@@H](O)[C@H](N)[C@@H]2O)C[C@@H]2O[C@](O)(C[C@@H](O)C[C@@H](O)[C@H](O)CC[C@@H](O)C[C@@H](O)CC(=O)O[C@H]1C)C[C@H](O)[C@H]2C(=O)O [AMB, amphotericin B] | 0.5 | 0.5 | 0.5 | 0.062 | 0.25 | 0.062 | 0.062 | 0.125 | 0.031 | 0.062 | 0.062 | 0.062 | – | – | – | – | 8 | 4 | – |
| CCC(C)n1ncn(-c2ccc(N3CCN(c4ccc(OCC5COC(Cn6cncn6)(c6ccc(Cl)cc6Cl)O5)cc4)CC3)cc2)c1=O (stereo not shown) [ITR, itraconazole] | 0.125 | 0.125 | 0.125 | 0.031 | 0.062 | 0.016 | 0.016 | 0.062 | 0.008 | 0.016 | 0.031 | 0.008 | – | – | – | – | – | – | 8 |
